Consider 29 molecules from patent US8268827B2, “Pyridazinone derivatives as PARP inhibitors” (Istituto di Ricerche di Biologia Molecolare P. Angeletti …, priority 2007, dated 2012).

The structures appear in SMILES notation. Bounds are passed on as bounds.

The test system of the experiment is BRCA-1 silenced HeLa cells (HeLa shBRCA1-GFP). As to the kind of experiment: Proliferation assay in BRCA-1 silenced HeLa cells. The experiment is classed as cell-based. Particulars: Homo sapiens; BRCA1 silenced HeLa cells, 168 hours; read-out: CC50 in the BRCA1 silenced HeLa cells. The essentials: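 HeLa cells with lentiviral shRNA BRCA1 knockdown (>80%), compared with control-vector HeLa, seeded at 300 cells/well. Compound exposure lasted 168 h at 37° C. Viability was read as resazurin-to-resorufin fluorescence (ex 550/em 590 nm).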

With `O=C(c1cc(Cc2cc(C(F)(F)F)c(=O)[nH]n2)ccc1F)N1CCN([C@H]2CCCOC2)C(=O)C1` [Example 153, 6-[4-fluoro-3-({3-oxo-4-[(3S)-tetrahydro-2H-pyran-3-yl]piperazin-1-yl}carbonyl)benzyl]-4-(trifluoromethyl)pyridazin-3(2H)-one], the CC50 is 50 to 500 nM.

With `O=C(c1cc(Cc2cc(C(F)(F)F)c(=O)[nH]n2)ccc1F)N1CCN([C@@H]2CCCOC2)C(=O)C1` [Example 154, 6-[4-fluoro-3-({3-oxo-4-[(3R)-tetrahydro-2H-pyran-3-yl]piperazin-1-yl}carbonyl)benzyl]-4-(trifluoromethyl)pyridazin-3(2H)-one], the CC50 was < 5000 nM. The result for `CCN1C(=O)CN(C(=O)c2cc(Cc3n[nH]c(=O)c(C(F)(F)F)c3C)ccc2F)C[C@@H]1C` [Example 155, 6-(3-{[(3S)-4-ethyl-3-methyl-5-oxopiperazin-1-yl]carbonyl}-4-fluorobenzyl)-5-methyl-4-(trifluoromethyl)pyridazin-3(2H)-one] reads < 50 nM; that for `CCN1C(=O)CN(C(=O)c2cc(Cc3n[nH]c(=O)c(C(F)(F)F)c3C)ccc2F)C[C@H]1C` [Example 156, 6-(3-{[(3R)-4-ethyl-3-methyl-5-oxopiperazin-1-yl]carbonyl}-4-fluorobenzyl)-5-methyl-4-(trifluoromethyl)pyridazin-3(2H)-one], < 50 nM; that for `Cc1c(Cc2ccc(F)c(C(=O)N3CC(=O)N([C@@H]4CCOC4)[C@@H](C)C3)c2)n[nH]c(=O)c1C` [Example 157, 6-[4-fluoro-3-({(3S)-3-methyl-5-oxo-4-[(3R)-tetrahydrofuran-3-yl]piperazin-1-yl}carbonyl)benzyl]-4,5-dimethylpyridazin-3(2H)-one], 50 to 500 nM. Turning to `Cc1c(Cc2ccc(F)c(C(=O)N3CC(=O)N([C@@H]4CCOC4)[C@H](C)C3)c2)n[nH]c(=O)c1C` [Example 158, 6-[4-fluoro-3-({(3R)-3-methyl-5-oxo-4-[(3R)-tetrahydrofuran-3-yl]piperazin-1-yl}carbonyl)benzyl]-4,5-dimethylpyridazin-3(2H)-one], the CC50 lay within 50 to 500 nM. With `CCc1cc(Cc2ccc(F)c(C(=O)N3CCN([C@H]4CCc5ccccc5C4)C(=O)C3)c2)n[nH]c1=O` [Example 159, 4-ethyl-6-[4-fluoro-3-({3-oxo-4-[(2S)-1,2,3,4-tetrahydronaphthalen-2-yl]piperazin-1-yl}carbonyl)benzyl]pyridazin-3(2H)-one], the CC50 is < 50 nM. As to `CCc1cc(Cc2ccc(F)c(C(=O)N3CCN([C@@H]4CCc5ccccc5C4)C(=O)C3)c2)n[nH]c1=O` [Example 160, 4-ethyl-6-[4-fluoro-3-({3-oxo-4-[(2R)-1,2,3,4-tetrahydronaphthalen-2-yl]piperazin-1-yl}carbonyl)benzyl]pyridazin-3(2H)-one], the CC50 is 50 to 500 nM.

For the molecule `CC[C@H](C)N1CCN(C(=O)c2cc(Cc3n[nH]c(=O)c(C)c3C)ccc2F)CC1=O` [Example 161, 6-[4-Fluoro-3-({4-[(1S)-1-methylpropyl]-3-oxopiperazin-1-yl}carbonyl)benzyl]-4,5-dimethylpyridazin-3(2H)-one], the CC50 is < 50 nM. On to `COCC(C)N1CCN(C(=O)c2cc(Cc3n[nH]c(=O)c(C)c3C)ccc2F)CC1=O` (centres unmarked) [Example 162, 6-(4-Fluoro-3-{[4-(2-methoxy-1-methylethyl)-3-oxopiperazin-1-yl]carbonyl}benzyl)-4,5-dimethylpyridazin-3(2H)-one], for which the CC50 is < 50 nM. `Cc1c(Cc2ccc(F)c(C(=O)N3CC(=O)N(C4CCC4)C(C)C3)c2)n[nH]c(=O)c1C` (centres unmarked) [Example 163, 6-{3-[(4-Cyclobutyl-3-methyl-5-oxopiperazin-1-yl)carbonyl]-4-fluorobenzyl}-4,5-dimethylpyridazin-3(2H)-one]: the CC50 was < 50 nM. For `CCC1CN(C(=O)c2cc(Cc3n[nH]c(=O)c(C)c3C)ccc2F)CC(=O)N1C1CCC1` (centres unmarked) [Example 164, 6-{3-[(4-Cyclobutyl-3-ethyl-5-oxopiperazin-1-yl)carbonyl]-4-fluorobenzyl}-4,5-dimethylpyridazin-3(2H)-one], the CC50 lay within 50 to 500 nM. The result for `Cc1c(Cc2ccc(F)c(C(=O)N3CC(=O)N(c4cccc(Cl)c4)C(C)C3)c2)n[nH]c(=O)c1C` (centres unmarked) [Example 165, 6-(3-{[4-(3-Chlorophenyl)-3-methyl-5-oxopiperazin-1-yl]carbonyl}-4-fluorobenzyl)-4,5-dimethylpyridazin-3(2H)-one] reads < 50 nM; that for `Cc1c(Cc2ccc(F)c(C(=O)N3CC(=O)N(c4ccc(C#N)cc4)[C@@H](C)C3)c2)n[nH]c(=O)c1C` [Example 166, 4-((2S)-4-{5-[(4,5-Dimethyl-6-oxo-1,6-dihydropyridazin-3-yl)methyl]-2-fluorobenzoyl}-2-methyl-6-oxopiperazin-1-yl)benzonitrile], < 50 nM; that for `CCC(CC)N1CCN(C(=O)c2cc(Cc3n[nH]c(=O)c(C)c3C)ccc2F)CC1=O` [Example 167, 6-(3-{[4-(1-Ethylpropyl)-3-oxopiperazin-1-yl]carbonyl}-4-fluorobenzyl)-4,5-dimethylpyridazin-3(2H)-one], < 50 nM. Consider `CC[C@@H](C)N1CCN(C(=O)c2cc(Cc3n[nH]c(=O)c(C)c3C)ccc2F)CC1=O` [Example 168, 6-[4-Fluoro-3-({4-[(1R)-1-methylpropyl]-3-oxopiperazin-1-yl}carbonyl)benzyl]-4,5-dimethylpyridazin-3(2H)-one], for which the CC50 was < 50 nM.

As for `COC[C@H](C)N1CCN(C(=O)c2cc(Cc3n[nH]c(=O)c(C)c3C)ccc2F)CC1=O` [Example 169, 6-[4-Fluoro-3-({4-[(1S)-2-methoxy-1-methylethyl]-3-oxopiperazin-1-yl}carbonyl)benzyl]-4,5-dimethylpyridazin-3(2H)-one], the 50% cytotoxic concentration (CC50) is < 5000 nM. Regarding `Cc1c(Cc2ccc(F)c(C(=O)N3CCN(CC(C)(C)O)C(=O)C3)c2)n[nH]c(=O)c1C` [Example 173, 6-(4-Fluoro-3-{[4-(2-hydroxy-2-methylpropyl)-3-oxopiperazin-1-yl]carbonyl}benzyl)-4,5-dimethylpyridazin-3(2H)-one], the CC50 is < 5000 nM.

`Cc1c(Cc2ccc(F)c(C(=O)N3CC(=O)N(c4ccc(C#N)c(F)c4)[C@@H](C)C3)c2)n[nH]c(=O)c1C` [Example 174, 4-((2S)-4-{5-[(4,5-Dimethyl-6-oxo-1,6-dihydropyridazin-3-yl)methyl]-2-fluorobenzoyl}-2-methyl-6-oxopiperazin-1-yl)-2-fluorobenzonitrile]: the CC50 was < 50 nM. As for `Cc1c(Cc2ccc(F)c(C(=O)N3CC(=O)N(C4CCC4)[C@H](C)C3)c2)n[nH]c(=O)c1C` [Example 175, 6-(3-{[(3R)-4-Cyclobutyl-3-methyl-5-oxopiperazin-1-yl]carbonyl}-4-fluorobenzyl)-4,5-dimethylpyridazin-3(2H)-one], the CC50 was < 50 nM. Turning to `Cc1c(Cc2ccc(F)c(C(=O)N3CC(=O)N(c4cccc(Cl)c4)[C@@H](C)C3)c2)n[nH]c(=O)c1C` [Example 177, 6-(3-{[(3S)-4-(3-Chlorophenyl)-3-methyl-5-oxopiperazin-1-yl]carbonyl}-4-fluorobenzyl)-4,5-dimethylpyridazin-3(2H)-one], the CC50 was < 50 nM. Consider `Cc1c(Cc2ccc(F)c(C(=O)N3CC(=O)N(c4cccc(Cl)c4)[C@H](C)C3)c2)n[nH]c(=O)c1C` [Example 178, 6-(3-{[(3R)-4-(3-Chlorophenyl)-3-methyl-5-oxopiperazin-1-yl]carbonyl}-4-fluorobenzyl)-4,5-dimethylpyridazin-3(2H)-one], for which the CC50 was < 50 nM. Take `COC[C@@H](C)N1CCN(C(=O)c2cc(Cc3n[nH]c(=O)c(C)c3C)ccc2F)CC1=O` [Example 179, 6-[4-Fluoro-3-({4-[(1R)-2-methoxy-1-methylethyl]-3-oxopiperazin-1-yl}carbonyl)benzyl]-4,5-dimethylpyridazin-3(2H)-one]: the CC50 is < 5000 nM. As to `CC[C@@H]1CN(C(=O)c2cc(Cc3n[nH]c(=O)c(C)c3C)ccc2F)CC(=O)N1C1CCC1` [Example 180, 6-(3-{[(3R)-4-Cyclobutyl-3-ethyl-5-oxopiperazin-1-yl]carbonyl}-4-fluorobenzyl)-4,5-dimethylpyridazin-3(2H)-one], the cytotoxic concentration (CC50) was < 5000 nM.

For the molecule `CCC1CN(C(=O)c2cc(Cc3n[nH]c(=O)c(C)c3C)ccc2F)CC(=O)N1C1CCCCC1` (centres unmarked) [Example 184, 6-{3-[(4-Cyclohexyl-3-ethyl-5-oxopiperazin-1-yl)carbonyl]-4-fluorobenzyl}-4,5-dimethylpyridazin-3(2H)-one], the CC50 was 50 to 500 nM. As to `CCC1CN(C(=O)c2cc(Cc3n[nH]c(=O)c(C)c3C)ccc2F)CC(=O)N1C1CCCC1` (centres unmarked) [Example 186, 6-{3-[(4-Cyclopentyl-3-ethyl-5-oxopiperazin-1-yl)carbonyl]-4-fluorobenzyl}-4,5-dimethylpyridazin-3(2H)-one], the CC50 is < 5000 nM. Regarding `Cc1c(Cc2ccc(F)c(C(=O)N3CC(=O)N(c4ccc(Cl)c(F)c4)[C@H](C)C3)c2)n[nH]c(=O)c1C` [Example 187, 6-(3-{[(3R)-4-(4-Chloro-3-fluorophenyl)-3-methyl-5-oxopiperazin-1-yl]carbonyl}-4-fluorobenzyl)-4,5-dimethylpyridazin-3(2H)-one], the CC50 is < 50 nM. As for `Cc1c(Cc2ccc(F)c(C(=O)N3CC(=O)N(C4CC(F)(F)C4)C(C)C3)c2)n[nH]c(=O)c1C` (centres unmarked) [Example 188, 6-(3-{[4-(3,3-Difluorocyclobutyl)-3-methyl-5-oxopiperazin-1-yl]carbonyl}-4-fluorobenzyl)-4,5-dimethylpyridazin-3(2H)-one], the CC50 is < 50 nM. On to `Cc1c(Cc2ccc(F)c(C(=O)N3CC(=O)N(c4ccc(C#N)cc4)[C@H](C)C3)c2)n[nH]c(=O)c1C` [Example 189, 4-((2R)-4-{5-[(4,5-Dimethyl-6-oxo-1,6-dihydropyridazin-3-yl)methyl]-2-fluorobenzoyl}-2-methyl-6-oxopiperazin-1-yl)benzonitrile], for which the CC50 is < 50 nM.
